The record followed here is patent US20120121591A1 (priority 2009, published 2012).

Molecules are shown by their SMILES. Positions of bridges follow the written chain, without caps; N, C: chain ends. Residues, ends and D or L forms follow the SMILES beside them.

What all share (type): cell-based
Assay [1] relates to IFN-g secretion from T cells in human whole blood. The conditions noted are these: read-out: WB (IFNg) IC50 (nM, Avg).
Assay [2] deals with IL-2 secretion from T cells in human whole blood. The following applies: read-out: WB (IL-2) IC50 (nM, Avg).
The next assay concerns the target hKv1.3 (Homo sapiens, UniProt P22001). In words: cell-based. The conditions noted are these: Kv1.3 (IWQ) IC50 (nM, Avg).

hKv1.3, sequence (P22001 whole entry): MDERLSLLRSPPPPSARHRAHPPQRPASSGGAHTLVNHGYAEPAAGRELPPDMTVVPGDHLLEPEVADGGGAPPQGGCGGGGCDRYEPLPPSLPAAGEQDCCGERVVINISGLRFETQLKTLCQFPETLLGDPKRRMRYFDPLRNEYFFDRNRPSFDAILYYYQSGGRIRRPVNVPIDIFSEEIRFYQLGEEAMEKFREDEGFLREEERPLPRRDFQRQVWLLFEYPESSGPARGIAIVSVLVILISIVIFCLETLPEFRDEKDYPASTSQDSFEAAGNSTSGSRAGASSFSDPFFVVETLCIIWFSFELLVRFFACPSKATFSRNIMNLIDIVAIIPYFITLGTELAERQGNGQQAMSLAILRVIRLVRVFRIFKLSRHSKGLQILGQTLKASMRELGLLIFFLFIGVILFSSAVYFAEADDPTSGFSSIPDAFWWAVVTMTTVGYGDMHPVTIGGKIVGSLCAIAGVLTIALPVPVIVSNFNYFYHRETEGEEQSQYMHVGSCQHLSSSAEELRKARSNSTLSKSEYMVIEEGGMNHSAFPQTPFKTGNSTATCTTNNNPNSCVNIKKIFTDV

Broadly, the IC50 is the concentration that inhibits the measured activity by half. `CC[C@H](C)[C@@H]1NC(=O)[C@H](CC(=O)O)NC(=O)[C@H]([C@@H](C)O)NC(=O)[C@@H]2CSSC[C@@H]3NC(=O)[C@H](CC(C)C)NC(=O)[C@H](CC(N)=O)NC(=O)[C@H](CC(C)C)NC(=O)[C@H](CCCNC(=N)N)NC(=O)[C@H](Cc4ccc(O)cc4)NC(=O)[C@H](CCCCN)NC(=O)[C@H](CCSC)NC(=O)[C@H](CO)NC(=O)[C@H]([C@@H](C)O)NC(=O)[C@H](CCCNC(=N)N)NC(=O)[C@H](CSSC[C@H](NC(=O)[C@H]([C@@H](C)O)NC(=O)[C@H](CCCCN)NC(=O)[C@H](CCCNC(=N)N)NC3=O)C(=O)NCC(=O)N[C@@H](CO)C(=O)N[C@H](C(=O)O)CSSC[C@H](NC(=O)[C@@H](NC(=O)[C@@H](N)CCCNC(=N)N)[C@@H](C)O)C(=O)N[C@@H](CCCCN)C(=O)N[C@@H](CC(=O)O)C(=O)N[C@@H](CC(C)C)C(=O)N[C@@H]([C@@H](C)CC)C(=O)N3CCC[C@H]3C(=O)N[C@@H](C(C)C)C(=O)N[C@@H](CO)C(=O)N[C@@H](CCC(=O)O)C(=O)N2)NC(=O)[C@H](CCCNC(=N)N)NC1=O` [HmK, reference compound] (H-RTCKDLIPVSECTDIRCRTSMKYRLNLCRKTCGSC-OH; disulfide 3-35, 12-28, 17-32): the IC50 worked out at 1.2 nM in assay [1], 0.85 nM in assay [2] and 0.9 nM against hKv1.3.
For `CC[C@H](C)[C@@H]1NC(=O)[C@@H](NC(=O)[C@H](CO)NC(=O)[C@@H](N)CCCNC(=N)N)CSSC[C@@H](C(=O)O)NC(=O)[C@H]([C@@H](C)O)NC(=O)CNC(=O)[C@@H]2CSSC[C@@H]3NC(=O)[C@H](CCC(N)=O)NC(=O)[C@H](Cc4ccccc4)NC(=O)[C@H](C)NC(=O)[C@H]([C@@H](C)O)NC(=O)[C@H](CSSC[C@H](NC(=O)[C@H](Cc4ccccc4)NC(=O)[C@H](CO)NC(=O)[C@H](CC(C)C)NC(=O)[C@H](CCCNC(=N)N)NC(=O)[C@H](C)NC(=O)[C@H](CCCCN)NC(=O)[C@H](CCSC)NC(=O)[C@H](CO)NC(=O)[C@H](Cc4c[nH]cn4)NC(=O)[C@H](CCCCN)NC3=O)C(=O)N[C@@H](CCCNC(=N)N)C(=O)N[C@@H](CCCCN)C(=O)N[C@@H]([C@@H](C)O)C(=O)N2)NC(=O)[C@H](CCCNC(=N)N)NC(=O)[C@H](CO)NC(=O)[C@H](CCCCN)NC(=O)[C@@H]2CCCN2C(=O)[C@H]([C@@H](C)CC)NC(=O)[C@H]([C@@H](C)O)NC(=O)[C@H](CC(=O)O)NC1=O` [Tyr23(A)], the 50% inhibitory concentration (IC50) was 5.44 nM in assay [1], 3.75 nM in assay [2] and 0.621 nM on hKv1.3.
Consider `CC[C@H](C)[C@@H]1NC(=O)[C@@H](NC(=O)[C@H](CO)NC(=O)[C@@H](N)Cc2cccc3ccccc23)CSSC[C@@H](C(=O)O)NC(=O)[C@H]([C@@H](C)O)NC(=O)CNC(=O)[C@@H]2CSSC[C@@H]3NC(=O)[C@H](CCC(N)=O)NC(=O)[C@H](Cc4ccccc4)NC(=O)[C@H](C)NC(=O)[C@H]([C@@H](C)O)NC(=O)[C@H](CSSC[C@H](NC(=O)[C@H](Cc4ccccc4)NC(=O)[C@H](CO)NC(=O)[C@H](CC(C)C)NC(=O)[C@H](CCCNC(=N)N)NC(=O)[C@H](Cc4ccc(O)cc4)NC(=O)[C@H](CCCCN)NC(=O)[C@H](CCSC)NC(=O)[C@H](CO)NC(=O)[C@H](Cc4c[nH]cn4)NC(=O)[C@H](CCCCN)NC3=O)C(=O)N[C@@H](CCCNC(=N)N)C(=O)N[C@@H](CCCCN)C(=O)N[C@@H]([C@@H](C)O)C(=O)N2)NC(=O)[C@H](CCCNC(=N)N)NC(=O)[C@H](CO)NC(=O)[C@H](CCCCN)NC(=O)[C@@H]2CCCN2C(=O)[C@H]([C@@H](C)CC)NC(=O)[C@H]([C@@H](C)O)NC(=O)[C@H](CC(=O)O)NC1=O` [[1-Nal1]ShK], for which the IC50 in assay [1] stood at 0.247 nM; in assay [2] it was 0.222 nM; against hKv1.3, 0.225 nM.
Regarding `CC[C@H](C)[C@@H]1NC(=O)[C@@H](NC(=O)[C@H](Cc2cccc3ccccc23)NC(=O)[C@@H](N)CCCNC(=N)N)CSSC[C@@H](C(=O)O)NC(=O)[C@H]([C@@H](C)O)NC(=O)CNC(=O)[C@@H]2CSSC[C@@H]3NC(=O)[C@H](CCC(N)=O)NC(=O)[C@H](Cc4ccccc4)NC(=O)[C@H](C)NC(=O)[C@H]([C@@H](C)O)NC(=O)[C@H](CSSC[C@H](NC(=O)[C@H](Cc4ccccc4)NC(=O)[C@H](CO)NC(=O)[C@H](CC(C)C)NC(=O)[C@H](CCCNC(=N)N)NC(=O)[C@H](Cc4ccc(O)cc4)NC(=O)[C@H](CCCCN)NC(=O)[C@H](CCSC)NC(=O)[C@H](CO)NC(=O)[C@H](Cc4c[nH]cn4)NC(=O)[C@H](CCCCN)NC3=O)C(=O)N[C@@H](CCCNC(=N)N)C(=O)N[C@@H](CCCCN)C(=O)N[C@@H]([C@@H](C)O)C(=O)N2)NC(=O)[C@H](CCCNC(=N)N)NC(=O)[C@H](CO)NC(=O)[C@H](CCCCN)NC(=O)[C@@H]2CCCN2C(=O)[C@H]([C@@H](C)CC)NC(=O)[C@H]([C@@H](C)O)NC(=O)[C@H](CC(=O)O)NC1=O` [[1-Nal2]ShK], the IC50 in assay [1] amounted to 0.258 nM; in assay [2], 0.223 nM; at hKv1.3, 0.25 nM.
The corresponding values for `CC[C@H](C)[C@@H]1NC(=O)[C@H]([C@@H](C)O)NC(=O)[C@H](CC(=O)O)NC(=O)[C@H](Cc2cccc3ccccc23)NC(=O)[C@@H](NC(=O)[C@H](CO)NC(=O)[C@@H](N)CCCNC(=N)N)CSSC[C@@H](C(=O)O)NC(=O)[C@H]([C@@H](C)O)NC(=O)CNC(=O)[C@@H]2CSSC[C@@H]3NC(=O)[C@H](CCC(N)=O)NC(=O)[C@H](Cc4ccccc4)NC(=O)[C@H](C)NC(=O)[C@H]([C@@H](C)O)NC(=O)[C@H](CSSC[C@H](NC(=O)[C@H](Cc4ccccc4)NC(=O)[C@H](CO)NC(=O)[C@H](CC(C)C)NC(=O)[C@H](CCCNC(=N)N)NC(=O)[C@H](Cc4ccc(O)cc4)NC(=O)[C@H](CCCCN)NC(=O)[C@H](CCSC)NC(=O)[C@H](CO)NC(=O)[C@H](Cc4c[nH]cn4)NC(=O)[C@H](CCCCN)NC3=O)C(=O)N[C@@H](CCCNC(=N)N)C(=O)N[C@@H](CCCCN)C(=O)N[C@@H]([C@@H](C)O)C(=O)N2)NC(=O)[C@H](CCCNC(=N)N)NC(=O)[C@H](CO)NC(=O)[C@H](CCCCN)NC(=O)[C@@H]2CCCN2C1=O` [[1-Nal4]ShK] are 0.317 nM, 0.274 nM and 0.15 nM.
Taken in the same sequence, the figures for `CC[C@H](C)[C@@H]1NC(=O)[C@@H](NC(=O)[C@H](CO)NC(=O)[C@@H](N)CCCNC(=N)N)CSSC[C@@H](C(=O)O)NC(=O)[C@H]([C@@H](C)O)NC(=O)CNC(=O)[C@@H]2CSSC[C@@H]3NC(=O)[C@H](CCC(N)=O)NC(=O)[C@H](Cc4ccccc4)NC(=O)[C@H](C)NC(=O)[C@H]([C@@H](C)O)NC(=O)[C@H](CSSC[C@H](NC(=O)[C@H](Cc4ccccc4)NC(=O)[C@H](CO)NC(=O)[C@H](CC(C)C)NC(=O)[C@H](CCCNC(=N)N)NC(=O)[C@H](Cc4ccc(O)cc4)NC(=O)[C@H](CCCCN)NC(=O)[C@H](CCSC)NC(=O)[C@H](CO)NC(=O)[C@H](Cc4c[nH]cn4)NC(=O)[C@H](CCCCN)NC3=O)C(=O)N[C@@H](CCCNC(=N)N)C(=O)N[C@@H](CCCCN)C(=O)N[C@@H]([C@@H](C)O)C(=O)N2)NC(=O)[C@H](CCCNC(=N)N)NC(=O)[C@H](CO)NC(=O)[C@H](CCCCN)NC(=O)[C@@H]2CCCN2C(=O)[C@H]([C@@H](C)CC)NC(=O)[C@H]([C@@H](C)O)NC(=O)[C@H](Cc2cccc3ccccc23)NC1=O` [[1-Nal5]ShK] were 31.9 nM, 70.4 nM and 3.3 nM.
Consider `CC[C@H](C)[C@@H]1NC(=O)[C@@H](NC(=O)[C@H](CO)NC(=O)[C@@H](N)CCCNC(=N)N)CSSC[C@@H](C(=O)O)NC(=O)[C@H]([C@@H](C)O)NC(=O)CNC(=O)[C@@H]2CSSC[C@@H]3NC(=O)[C@H](CCC(N)=O)NC(=O)[C@H](Cc4ccccc4)NC(=O)[C@H](C)NC(=O)[C@H]([C@@H](C)O)NC(=O)[C@H](CSSC[C@H](NC(=O)[C@H](Cc4ccccc4)NC(=O)[C@H](CO)NC(=O)[C@H](CC(C)C)NC(=O)[C@H](CCCNC(=N)N)NC(=O)[C@H](Cc4ccc(O)cc4)NC(=O)[C@H](CCCCN)NC(=O)[C@H](CCSC)NC(=O)[C@H](CO)NC(=O)[C@H](Cc4c[nH]cn4)NC(=O)[C@H](CCCCN)NC3=O)C(=O)N[C@@H](CCCNC(=N)N)C(=O)N[C@@H](CCCCN)C(=O)N[C@@H]([C@@H](C)O)C(=O)N2)NC(=O)[C@H](CCCNC(=N)N)NC(=O)[C@H](CO)NC(=O)[C@H](CCCCN)NC(=O)[C@@H]2CCCN2C(=O)[C@H]([C@@H](C)CC)NC(=O)[C@H](Cc2cccc3ccccc23)NC(=O)[C@H](CC(=O)O)NC1=O` [[1-Nal6]ShK], for which the IC50 was determined as 0.962 nM in assay [1], 0.86 nM in assay [2] and 0.15 nM against hKv1.3.
The corresponding values for `CC[C@H](C)[C@@H]1NC(=O)[C@@H](NC(=O)[C@H](CO)NC(=O)[C@@H](N)CCCNC(=N)N)CSSC[C@@H](C(=O)O)NC(=O)[C@H]([C@@H](C)O)NC(=O)CNC(=O)[C@@H]2CSSC[C@@H]3NC(=O)[C@H](CCC(N)=O)NC(=O)[C@H](Cc4ccccc4)NC(=O)[C@H](C)NC(=O)[C@H]([C@@H](C)O)NC(=O)[C@H](CSSC[C@H](NC(=O)[C@H](Cc4ccccc4)NC(=O)[C@H](CO)NC(=O)[C@H](CC(C)C)NC(=O)[C@H](CCCNC(=N)N)NC(=O)[C@H](Cc4ccc(O)cc4)NC(=O)[C@H](CCCCN)NC(=O)[C@H](CCSC)NC(=O)[C@H](CO)NC(=O)[C@H](Cc4c[nH]cn4)NC(=O)[C@H](CCCCN)NC3=O)C(=O)N[C@@H](CCCNC(=N)N)C(=O)N[C@@H](CCCCN)C(=O)N[C@@H]([C@@H](C)O)C(=O)N2)NC(=O)[C@H](CCCNC(=N)N)NC(=O)[C@H](CO)NC(=O)[C@H](CCCCN)NC(=O)[C@@H]2CCCN2C(=O)[C@H](Cc2cccc3ccccc23)NC(=O)[C@H]([C@@H](C)O)NC(=O)[C@H](CC(=O)O)NC1=O` [[1-Nal7]ShK] are 18 nM, 11.6 nM and 0.699 nM.
